These results are taken from patent publication US20120101167A1, “Treatment of ocular and cerebral ischemia” (priority 2010, published 2012).

In this test the test system is glaucoma patients. Nature of the test: IOP, pulsatile blood flow, visual performance, relative scotomas and stability of differential light sensitivity in glaucoma patients under long-term topical treatment. In kind it is in vivo, human. From the text: Elevated IOP is a risk factor associated with the development of glaucoma but it is not the disease itself. The recent recognition that a large percentage of glaucoma patients never experience elevated IOP has increased the possibility that the ocular hypotensive drug has the undesirable action of decreasing ocular blood flow. This possibility has been supported by numerous studies and confirmed in the prolonged longitudinal studies on individual glaucoma patents (Table 1). With increased ocular blood flow, the vision improved whilst with a drug having equal ocular hypotensive action, but causing decreased ocular blood flow run vision worsened. […] The Intraocular pressure and pulse form. The […] pneumatic digitized tonometer was used to make continuous recordings of the intraocular pressure and its pulsatile character. This recording system provides the steady state IOP and the form of the IOP pulse with an accuracy equal to a manometric recording. The pulsatile ocular blood flow is evaluated from the amplitude of the individual pulses using the known pressure/volume relation of living human eyes. […]'Brien V., Silver, D. M., Non-Invasive Measurement of Pulsatile Ocular Blood Flow in the Human […] and […], Amsterdam (1989).

The mark [1] stands for this setting: difference clonidine treatment minus timolol treatment, five glaucoma patients.
The mark [2] stands for this setting: five glaucoma patients, topical 0.25% clonidine b.i.d., years 6, 7 and 8 (after timolol).
Where [3] appears, read: difference timolol treatment minus prior, five glaucoma patients.
The mark [4] stands for this setting: five glaucoma patients, topical timolol 0.25-0.50% b.i.d., years 3, 4 and 5.

On to `Clc1cccc(Cl)c1N=C1NCCN1` [Clonidine, clonidine], for which, under setting [1], the “IOP, Clon-Timolol” value is −0.8 ± 0.5 mmHg; the “PBF, Clon-Timolol” value is 192 ± 71 µL/min; the “Vis. P. (visual performance), Clon-Timolol” value amounted to 31 ± 9. Moreover, under setting [2], the IOP was found to be 20.0 ± 1.0 mmHg, the PBF came to 557 ± 30 µL/min, the “Rel. Scot (relative scotomas)” value is listed as 3 and the “Vis. P. (visual performance)” value was found to be 564 ± 30. Besides, the “Stability of the differential light sensitivity, Clon-Timolol” value (number of the five glaucoma patients, clonidine treatment versus timolol treatment) was 5 improved. The “Stability of the differential light sensitivity” value (number of the five glaucoma patients, topical 0.25% clonidine b.i.d., years 6, 7 and 8) amounted to 5 improved.
As for `CC(C)(C)NC[C@H](O)COc1nsnc1N1CCOCC1` [Timolol, timolol], under setting [3], the “IOP, Tim-Prior” value is −3.1 ± 0.6 mmHg; the “PBF, Tim-Prior” value was -177 ± 33 µL/min; the “Vis. P. (visual performance), Tim-Prior” value is −116 ± 2. Besides, under setting [4], the IOP was determined as 20.8 ± 0.6 mmHg, the PBF is 365 ± 20 µL/min, the “Rel. Scot (relative scotomas)” value came to 3 and the “Vis. P. (visual performance)” value worked out at 533 ± 20. Moreover, the “Stability of the differential light sensitivity, Tim-Prior” value (number of the five glaucoma patients, timolol treatment versus prior) was determined as 5 decreased. Besides, the “Stability of the differential light sensitivity” value (number of the five glaucoma patients, topical timolol 0.25-0.50% b.i.d., years 3, 4 and 5) is on record as 5 decreased.
